Source: patent US8901156B2, “Compounds and methods” (Tempero Pharmaceuticals, Inc., priority 2010, dated 2014)

Target: T1, Recombinant HDAC9 isoform 4 (Homo sapiens, UniProt Q9UKV0)
T1 construct: purchased BPS Bioscience
Experiment: Histone Deacetylase 9 (HDAC9) inhibition assay, fluorogenic substrate
Format: biochemical
Conditions: mean of a minimum of 2 experiments; 11 point 3x dilution series from 100 uM; substrate 4.5 uM; read-out: mean pIC50, inhibition of HDAC9 (converted)

T1 sequence (Q9UKV0 1-1066 isoform Q9UKV0-5): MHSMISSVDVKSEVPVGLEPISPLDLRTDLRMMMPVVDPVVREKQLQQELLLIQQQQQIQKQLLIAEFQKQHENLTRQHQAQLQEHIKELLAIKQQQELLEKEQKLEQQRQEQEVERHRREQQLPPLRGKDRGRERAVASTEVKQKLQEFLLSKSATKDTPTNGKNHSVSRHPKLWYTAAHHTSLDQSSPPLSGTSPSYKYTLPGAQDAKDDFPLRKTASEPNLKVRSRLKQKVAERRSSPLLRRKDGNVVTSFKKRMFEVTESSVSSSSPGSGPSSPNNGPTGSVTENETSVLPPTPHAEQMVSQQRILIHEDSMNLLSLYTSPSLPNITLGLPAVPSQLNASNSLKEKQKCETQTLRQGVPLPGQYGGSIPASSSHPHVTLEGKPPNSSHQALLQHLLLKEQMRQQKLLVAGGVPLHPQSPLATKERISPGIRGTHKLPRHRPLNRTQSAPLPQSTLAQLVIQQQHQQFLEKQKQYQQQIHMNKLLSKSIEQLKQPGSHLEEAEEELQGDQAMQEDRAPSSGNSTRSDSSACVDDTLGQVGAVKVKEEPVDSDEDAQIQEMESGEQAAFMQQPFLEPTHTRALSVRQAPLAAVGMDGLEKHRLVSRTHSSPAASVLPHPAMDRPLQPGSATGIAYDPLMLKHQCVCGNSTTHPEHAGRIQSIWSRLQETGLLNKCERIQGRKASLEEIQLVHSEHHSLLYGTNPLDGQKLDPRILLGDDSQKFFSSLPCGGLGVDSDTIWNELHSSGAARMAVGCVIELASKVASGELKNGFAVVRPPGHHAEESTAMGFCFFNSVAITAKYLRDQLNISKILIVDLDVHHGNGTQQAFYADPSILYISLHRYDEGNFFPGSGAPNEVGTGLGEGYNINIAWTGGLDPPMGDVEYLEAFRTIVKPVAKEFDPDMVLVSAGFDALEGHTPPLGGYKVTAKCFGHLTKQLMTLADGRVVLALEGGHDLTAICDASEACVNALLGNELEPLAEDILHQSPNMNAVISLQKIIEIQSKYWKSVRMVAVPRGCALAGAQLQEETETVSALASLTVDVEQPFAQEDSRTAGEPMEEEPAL

Structure (SMILES) | IC50 [nM]
O=C(NCC1(c2nc(-c3ccncc3)cs2)CCOCC1)c1cccc(-c2noc(C(F)(F)F)n2)c1 [Example 21, N-((4-(4-(Pyridin-4-yl)thiazol-2-yl)tetrahydro-2H-pyran-4-yl)methyl)-3-(5-(trifluoromethyl)-1,2,4-oxadiazol-3-yl)benzamide] | < 1000
O=S(=O)(NCC1(c2nc(-c3ccccc3)cs2)CCOCC1)c1cccc(-c2noc(C(F)(F)F)n2)c1 [Example 32, N-((4-(4-Phenylthiazol-2-yl)tetrahydro-2H-pyran-4-yl)methyl)-3-(5-(trifluoromethyl)-1,2,4-oxadiazol-3-yl)benzenesulfonamide] | < 1000
O=C(NCC1(c2cccc(-c3ccccc3)c2)CCOCC1)c1cncc(-c2noc(C(F)(F)F)n2)c1 [Example 78, N-((4-([1,1′-Biphenyl]-3-yl)tetrahydro-2H-pyran-4-yl)methyl)-5-(5-(trifluoromethyl)-1,2,4-oxadiazol-3-yl)nicotinamide] | < 1000
O=C(NCCC(O)c1coc(-c2ccc(F)cc2)n1)c1cccc(-c2noc(C(F)(F)F)n2)c1 (centres unmarked) [Example 110, N-(3-(2-(4-Fluorophenyl)oxazol-4-yl)-3-hydroxypropyl)-3-(5-(trifluoromethyl)-1,2,4-oxadiazol-3-yl)benzamide] | < 1000
O=C(NCCc1nc(-c2ccccc2)no1)c1cccc(-c2noc(C(F)(F)F)n2)c1 [Example 132, N-(2-(3-Phenyl-1,2,4-oxadiazol-5-yl)ethyl)-3-(5-(trifluoromethyl)-1,2,4-oxadiazol-3-yl)benzamide] | < 1000
